Where a SMILES comes first, the peptide text is derived from it.
assay: Motilin immunoreactivity concentration in plasma, half-life after intravenous administration (Example 8); conditions: SD, rat, in vivo; intravenous, 10 nmol/kg, male rats, N = 3; read-out: T½ Mean Value
Procedure, shortened: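 Male SD rats (7 weeks, n=3/group) received human motilin or derivative at 10 nmol/kg i.v. via tail vein; arterial blood was sampled up to 60 min, with EDTA and aprotinin added. Plasma motilin immunoreactivity was measured by competitive RIA using a rabbit polyclonal antibody against native motilin residues 1–12 and ^125I-[Tyr^7] human motilin tracer.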

SMILES	half-life [min]
CC[C@H](C)[C@H](NC(=O)[C@@H]1CCCN1C(=O)[C@@H](NC(=O)[C@@H](N)Cc1ccccc1)C(C)C)C(=O)N[C@@H](Cc1ccccc1)C(=O)N[C@H](C(=O)N[C@@H](Cc1ccc(O)cc1)C(=O)NCC(=O)N[C@@H](CCC(=O)O)C(=O)N[C@@H](CC(C)C)C(=O)N[C@@H](CCC(N)=O)C(=O)N[C@@H](CCCNC(=N)N)C(=O)N[C@H](C(=O)N[C@@H](CCC(N)=O)C(=O)N[C@@H](CCC(N)=O)C(=O)N[C@@H](CCCCN)C(=O)N[C@@H](CCCNC(=N)N)C(=O)N[C@@H](CC(=O)O)C(=O)N[C@@H](CO)C(=O)N[C@@H](CCCNC(=N)N)C(=O)N[C@@H](CCCNC(=N)N)C(=O)N1CCC[C@H]1C(=O)N1CCC[C@H]1C(=O)N[C@@H](C)C(=O)N[C@@H](CCCCN)C(=O)N[C@@H](CC(C)C)C(=O)N[C@@H](CCC(N)=O)C(=O)N1CCC[C@H]1C(=O)N[C@@H](CCCNC(=N)N)C(=O)O)C(C)C)[C@@H](C)O [Chimeric motilin (X)(MG-17E/D)] (H-FVPIFTYGELQRVQQKRDSRRPPAKLQPR-OH)	7.89

same assay, conditions: male, SD, rat, in vivo, iv, 10 nmol/kg

half-life [min]	SMILES
12.8	CC[C@H](C)[C@H](NC(=O)[C@@H]1CCCN1C(=O)[C@@H](NC(=O)[C@@H](N)Cc1ccccc1)C(C)C)C(=O)N[C@@H](Cc1ccccc1)C(=O)N[C@H](C(=O)N[C@@H](Cc1ccc(O)cc1)C(=O)NCC(=O)N[C@@H](CCC(=O)O)C(=O)N[C@@H](CC(C)C)C(=O)N[C@@H](CCC(N)=O)C(=O)N[C@@H](CCCNC(=N)N)C(=O)N[C@H](C(=O)N[C@@H](CCC(N)=O)C(=O)N[C@@H](CCC(N)=O)C(=O)N[C@@H](CCCNC(=N)N)C(=O)N[C@@H](CCCCN)C(=O)N[C@@H](CCC(=O)O)C(=O)N[C@@H](CO)C(=O)N[C@@H](CCCCN)C(=O)N[C@@H](CCCCN)C(=O)N1CCC[C@H]1C(=O)N1CCC[C@H]1C(=O)N[C@@H](C)C(=O)N[C@@H](CCC(=O)O)C(=O)N[C@@H](CC(C)C)C(=O)N[C@@H](C)C(=O)N[C@@H](C)C(=O)N[C@@H](CC(C)C)C(=O)N[C@@H](CCC(=O)O)C(=O)N[C@@H](C)C(=O)O)C(C)C)[C@@H](C)O [Chimeric motilin (VII)(MG-H3)] (H-FVPIFTYGELQRVQQRKESKKPPAELAALEA-OH; N-terminus and C-terminus assumed)
11.6	CC[C@H](C)[C@H](NC(=O)[C@@H]1CCCN1C(=O)[C@@H](NC(=O)[C@@H](N)Cc1ccccc1)C(C)C)C(=O)N[C@@H](Cc1ccccc1)C(=O)N[C@H](C(=O)N[C@@H](Cc1ccc(O)cc1)C(=O)NCC(=O)N[C@@H](CCC(=O)O)C(=O)N[C@@H](CC(C)C)C(=O)N[C@@H](CCC(N)=O)C(=O)N[C@@H](CCCNC(=N)N)C(=O)N[C@H](C(=O)N[C@@H](CCC(N)=O)C(=O)N[C@@H](CCC(N)=O)C(=O)N[C@@H](CCCNC(=N)N)C(=O)N[C@@H](CCCCN)C(=O)N[C@@H](CCC(=O)O)C(=O)N[C@@H](CO)C(=O)N[C@@H](CCCCN)C(=O)N[C@@H](CCCCN)C(=O)N1CCC[C@H]1C(=O)N1CCC[C@H]1C(=O)N[C@@H](C)C(=O)N[C@@H](CCC(=O)O)C(=O)N[C@@H](CC(C)C)C(=O)N[C@@H](C)C(=O)N[C@@H](C)C(=O)N[C@@H](CC(C)C)C(=O)N[C@@H](CCCCN)C(=O)N[C@@H](C)C(=O)O)C(C)C)[C@@H](C)O [Chimeric motilin (VIII)(MG-H4)] (H-FVPIFTYGELQRVQQRKESKKPPAELAALKA-OH; N-terminus and C-terminus assumed)
5.39	CC[C@H](C)[C@H](NC(=O)[C@@H]1CCCN1C(=O)[C@@H](NC(=O)[C@@H](N)Cc1ccccc1)C(C)C)C(=O)N[C@@H](Cc1ccccc1)C(=O)N[C@H](C(=O)N[C@@H](Cc1ccc(O)cc1)C(=O)NCC(=O)N[C@@H](CCC(=O)O)C(=O)N[C@@H](CC(C)C)C(=O)N[C@@H](CCC(N)=O)C(=O)N[C@@H](CCCNC(=N)N)C(=O)N[C@H](C(=O)N[C@@H](CCC(N)=O)C(=O)N[C@@H](CCC(N)=O)C(=O)N[C@@H](CCCNC(=N)N)C(=O)N[C@@H](CCCCN)C(=O)N[C@@H](CCCCN)C(=O)N[C@@H](CCCCN)C(=O)N1CCC[C@H]1C(=O)N1CCC[C@H]1C(=O)N[C@@H](C)C(=O)N[C@@H](CCCCN)C(=O)N[C@@H](CC(C)C)C(=O)N[C@@H](CCC(N)=O)C(=O)N1CCC[C@H]1C(=O)N[C@@H](CCCNC(=N)N)C(=O)O)C(C)C)[C@@H](C)O [Chimeric motilin (W)(MG-dES)] (H-FVPIFTYGELQRVQQRKKKPPAKLQPR-OH; N-terminus and C-terminus assumed)
5.25	CC[C@H](C)[C@H](NC(=O)[C@H](CCSC)NC(=O)[C@@H]1CCCN1C(=O)[C@@H]1CCCN1C(=O)[C@H](CCCCN)NC(=O)[C@H](CCCCN)NC(=O)[C@H](CO)NC(=O)[C@H](CCC(=O)O)NC(=O)[C@H](CCCCN)NC(=O)[C@H](CCCNC(=N)N)NC(=O)[C@H](CCC(N)=O)NC(=O)[C@H](CCC(N)=O)NC(=O)[C@@H](NC(=O)[C@H](CCCNC(=N)N)NC(=O)[C@H](CCC(N)=O)NC(=O)[C@H](CC(C)C)NC(=O)[C@H](CCC(=O)O)NC(=O)CNC(=O)[C@H](Cc1ccc(O)cc1)NC(=O)[C@@H](NC(=O)[C@H](Cc1ccccc1)NC(=O)[C@@H](NC(=O)[C@@H]1CCCN1C(=O)[C@@H](NC(=O)[C@@H](N)Cc1ccccc1)C(C)C)[C@@H](C)CC)[C@@H](C)O)C(C)C)C(=O)N[C@H](C(=O)N[C@H](C(=O)N[C@@H](CCCNC(=N)N)C(=O)O)[C@@H](C)CC)[C@@H](C)O [Chimeric motilin (X)(MG-S)] (H-FVPIFTYGELQRVQQRKESKKPPMITIR-OH; N-terminus and C-terminus assumed)

Continued, compound first:

SMILES	half-life [min]
CC[C@H](C)[C@H](NC(=O)[C@@H]1CCCN1C(=O)[C@@H](NC(=O)[C@@H](N)Cc1ccccc1)C(C)C)C(=O)N[C@@H](Cc1ccccc1)C(=O)N[C@H](C(=O)N[C@@H](Cc1ccc(O)cc1)C(=O)NCC(=O)N[C@@H](CCC(=O)O)C(=O)N[C@@H](CC(C)C)C(=O)N[C@@H](CCC(N)=O)C(=O)N[C@@H](CCCNC(=N)N)C(=O)N[C@H](C(=O)N[C@@H](CCC(N)=O)C(=O)N[C@@H](CCC(N)=O)C(=O)N[C@@H](CCCNC(=N)N)C(=O)N[C@@H](CCCCN)C(=O)N[C@@H](CC(=O)O)C(=O)N[C@@H](CO)C(=O)N[C@@H](CCCCN)C(=O)N[C@@H](CCCCN)C(=O)N1CCC[C@H]1C(=O)N1CCC[C@H]1C(=O)N[C@@H](C)C(=O)N[C@@H](CCCCN)C(=O)N[C@@H](CC(C)C)C(=O)N[C@@H](CCC(N)=O)C(=O)N1CCC[C@H]1C(=O)N[C@@H](CCCNC(=N)N)C(=O)O)C(C)C)[C@@H](C)O [Chimeric motilin (V)(MG-ES/DS)] (H-FVPIFTYGELQRVQQRKDSKKPPAKLQPR-OH; N-terminus and C-terminus assumed)	10.1
CC[C@H](C)[C@H](NC(=O)[C@@H]1CCCN1C(=O)[C@@H](NC(=O)[C@@H](N)Cc1ccccc1)C(C)C)C(=O)N[C@@H](Cc1ccccc1)C(=O)N[C@H](C(=O)N[C@@H](Cc1ccc(O)cc1)C(=O)NCC(=O)N[C@@H](CCC(=O)O)C(=O)N[C@@H](CC(C)C)C(=O)N[C@@H](CCC(N)=O)C(=O)N[C@@H](CCCNC(=N)N)C(=O)N[C@H](C(=O)N[C@@H](CCC(N)=O)C(=O)N[C@@H](CCC(N)=O)C(=O)N[C@@H](CCCNC(=N)N)C(=O)N[C@@H](CCCCN)C(=O)N[C@@H](CCC(=O)O)C(=O)N[C@@H](CO)C(=O)N[C@@H](CCCCN)C(=O)N[C@@H](CCCCN)C(=O)N1CCC[C@H]1C(=O)N1CCC[C@H]1C(=O)N[C@@H](C)C(=O)N[C@@H](CCCCN)C(=O)N[C@@H](CC(C)C)C(=O)N[C@@H](C)C(=O)N[C@@H](C)C(=O)N[C@@H](CC(C)C)C(=O)N[C@@H](CCCCN)C(=O)N[C@@H](C)C(=O)O)C(C)C)[C@@H](C)O [Chimeric motilin (VI)(MG-H1)] (H-FVPIFTYGELQRVQQRKESKKPPAKLAALKA-OH; N-terminus and C-terminus assumed)	9.94
